Source: paper PMC8869358, “High-Throughput Chemical Screening and Structure-Based Models to Predict hERG Inhibition” (Biology, 2022)
Counter-ions that a name gives are not always drawn.

Molecular target: hERG (Homo sapiens, UniProt Q12809)
Assay: cell-based
Settings: (-LOG10(IC50), µM)

hERG, sequence (Q12809 whole entry): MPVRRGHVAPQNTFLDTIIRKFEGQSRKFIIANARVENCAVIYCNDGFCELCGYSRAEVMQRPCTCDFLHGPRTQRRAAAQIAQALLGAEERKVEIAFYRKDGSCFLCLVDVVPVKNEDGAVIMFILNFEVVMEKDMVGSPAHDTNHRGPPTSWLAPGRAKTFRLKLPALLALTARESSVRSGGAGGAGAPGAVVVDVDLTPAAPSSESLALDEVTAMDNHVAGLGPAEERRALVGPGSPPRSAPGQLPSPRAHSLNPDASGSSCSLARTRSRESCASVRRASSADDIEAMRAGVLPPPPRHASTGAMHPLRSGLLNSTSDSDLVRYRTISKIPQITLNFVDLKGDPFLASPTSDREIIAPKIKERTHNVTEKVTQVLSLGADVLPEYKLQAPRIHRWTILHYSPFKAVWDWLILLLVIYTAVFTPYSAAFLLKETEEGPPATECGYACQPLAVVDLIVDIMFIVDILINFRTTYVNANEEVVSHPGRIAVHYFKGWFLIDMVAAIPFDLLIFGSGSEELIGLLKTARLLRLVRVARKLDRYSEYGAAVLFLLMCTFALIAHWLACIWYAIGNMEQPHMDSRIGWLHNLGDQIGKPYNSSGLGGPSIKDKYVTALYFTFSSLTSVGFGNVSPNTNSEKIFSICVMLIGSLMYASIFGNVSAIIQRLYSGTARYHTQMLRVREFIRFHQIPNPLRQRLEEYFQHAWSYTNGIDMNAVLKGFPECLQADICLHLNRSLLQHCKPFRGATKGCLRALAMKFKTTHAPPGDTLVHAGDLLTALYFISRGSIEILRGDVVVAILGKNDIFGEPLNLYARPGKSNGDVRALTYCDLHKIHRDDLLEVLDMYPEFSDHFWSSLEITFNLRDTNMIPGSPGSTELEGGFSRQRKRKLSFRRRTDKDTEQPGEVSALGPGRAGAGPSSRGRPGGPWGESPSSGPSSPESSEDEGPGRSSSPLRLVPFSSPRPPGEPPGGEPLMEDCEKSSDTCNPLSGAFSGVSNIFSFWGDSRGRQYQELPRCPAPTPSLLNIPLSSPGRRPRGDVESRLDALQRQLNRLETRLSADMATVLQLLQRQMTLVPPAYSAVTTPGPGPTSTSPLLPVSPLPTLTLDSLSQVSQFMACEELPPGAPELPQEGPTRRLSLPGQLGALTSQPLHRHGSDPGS

Oc1ccc(Cl)cc1Cc1cc(Cl)ccc1O [Dichlorophen]
IC50: 27 µM

O=C(CCC1CCN(Cc2ccccc2)CC1)c1ccc2c(c1)NCCCC2 [Zanapezil fumerate]
IC50: 4.59 µM

Cl[C@H]1[C@H](Cl)[C@@H](Cl)[C@H](Cl)[C@H](Cl)[C@H]1Cl [alpha-1,2,3,4,5,6-Hexachlorocyclohexane]
IC50: 49.4 µM

Cc1cc(CCN2CCN(c3nsc4ccccc34)CC2)cc2c1NC(=O)CC2(C)C [PD 0343701]
IC50: 16.1 µM

CC1=CC(=O)c2ccccc2C1=O [Menadione]
IC50: 7.28 µM

COc1ccccc1N1CCN(CCCCNC(=O)c2ccc(-c3ccc(C(C)=O)cc3)cc2)CC1 [GR 103691]
IC50: 3.01 µM

O=C1[C@H]2CCCC[C@H]2C(=O)N1CCCCN1CCN(c2nsc3ccccc23)CC1 [Perospirone hydrochloride]
IC50: 8.49 µM

CC(C)Cc1ccc(C(C)C(=O)OCc2ccccn2)cc1 (stereo not drawn) [Ibuprofen piconol]
IC50: 16.3 µM

CCOC(=O)c1c(N)sc2c1CCN(Cc1ccccc1)C2 [Tinoridine]
IC50: 21.3 µM

CC[C@@H]([C@H](C)O)n1ncn(-c2ccc(N3CCN(c4ccc(OC[C@@H]5CO[C@@](Cn6cncn6)(c6ccc(F)cc6F)C5)cc4)CC3)cc2)c1=O [Posaconazole]
IC50: 12.9 µM

CN1C(=O)N(c2ccccc2Br)Cc2cnc(Nc3ccc4c(c3)OCC(CO)O4)nc21 (stereo not drawn) [PharmaGSID_48519]
IC50: 43.6 µM

CC(C)CC(C)(c1ccc(O)cc1)c1ccc(O)cc1 [4,4'-(4-Methylpentane-2,2-diyl)diphenol]
IC50: 28.6 µM

CCCCCCCCCCn1cc[n+](C)c1 [1-Decyl-3-methylimidazolium trifluoromethanesulfonate]
IC50: 13.6 µM

CCOC(=O)COC(=O)c1cc(Oc2ccc(C(F)(F)F)cc2Cl)ccc1[N+](=O)[O-] [Fluoroglycofen-ethyl]
IC50: 13.8 µM

CC(=O)OCCN(CCOC(C)=O)c1ccc(/N=N/c2ccc([N+](=O)[O-])cc2C#N)cc1 [Disperse Red 82]
IC50: 24.5 µM

O=C(Oc1ccccc1)c1ccc2ccccc2c1O [Phenyl 1-hydroxy-2-naphthoate]
IC50: 49 µM

CC(C)Oc1cc(-n2nc(C(C)(C)C)oc2=O)c(Cl)cc1Cl [Oxadiazon]
IC50: 44.7 µM

CCOCCn1c(C2CCN(CCc3ccc(C(C)(C)C(=O)O)cc3)CC2)nc2ccccc21 [Bilastine]
IC50: 10.1 µM

O[Si](c1ccccc1)(c1ccccc1)c1ccccc1 [Triphenylsilanol]
IC50: 21.9 µM

C/C(=C(/OCCOc1ccc(Cl)cc1)c1ccc(Cl)cc1Cl)n1ccnc1 [Omoconazole]
IC50: 8.17 µM

O=C1CCCCCCCCCCCCCC1 [Cyclopentadecanone]
IC50: 24.5 µM

ClC(Cl)=C(c1ccc(Cl)cc1)c1ccc(Cl)cc1 [p,p'-DDE]
IC50: 27.5 µM

CC(C)(Cc1c[nH]c2ccccc12)NCC(O)COc1ccccc1C#N (stereo not drawn) [Bucindolol]
IC50: 8.49 µM

C[N+]1(C)CCC(=C(c2ccccc2)c2ccccc2)CC1 [Diphemanil methylsulfate]
IC50: 6.24 µM

CCCSSC(CCO)=C(C)N(C=O)Cc1cnc(C)nc1N [Prosultiamine]
IC50: 10.7 µM

CCC(C)c1cc(C(C)(C)C)c(O)c(C(C)(C)C)c1 (stereo not drawn) [4-(Butan-2-yl)-2,6-di-tert-butylphenol]
IC50: 8.54 µM

CCOC(=O)c1ccc([C@H]2CC[C@H](NC[C@H](O)COc3ccc(O)c(NS(C)(=O)=O)c3)CC2)cc1 [SAR 150640]
IC50: 28.5 µM

CCOC(=O)COc1ccc2c(c1)CC(NCC(O)c1cccc(Cl)c1)CC2 (stereo not drawn) [SR58611]
IC50: 1.45 µM

CC(=O)C1=C(C)[C@@H]2C[C@@]3(C1)[C@H](C)CC[C@H]3C2(C)C [Acetylcedrene]
IC50: 30.5 µM

Cc1ccccc1OP(=O)(Oc1ccccc1C)Oc1ccccc1C [Tri-o-cresyl phosphate]
IC50: 21.1 µM

C=CC(C)(CCC=C(C)C)OC(=O)c1ccccc1 (stereo not drawn) [Linalyl benzoate]
IC50: 20.3 µM

CC(Cc1cccc(C(F)(F)F)c1)NCCOC(=O)c1ccccc1 (stereo not drawn) [Benfluorex hydrochloride]
IC50: 9.52 µM

CC(C)Nc1ccc(Nc2ccccc2)cc1 [N-Isopropyl-N'-phenyl-p-phenylenediamine]
IC50: 28.5 µM

COC(=O)C1=C(C)NC(C)=C(C(=O)OC(C)(C)CN(C)CCC(c2ccccc2)c2ccccc2)C1c1cccc([N+](=O)[O-])c1 (stereo not drawn) [Lercanidipine hydrochloride]
IC50: 3.25 µM

CC(C)c1ccc2c(c1)CC[C@H]1[C@](C)(CN)CCC[C@]21C [Dehydroabietylamine acetate]
IC50: 13.3 µM

CCN1CCN(c2cc(-c3ccc(F)cc3)c3c(n2)CCCCCC3)CC1 [Blonanserin]
IC50: 3.99 µM

CCOP(=S)(OCC)SCn1c(=O)oc2cc(Cl)ccc21 [Phosalone]
IC50: 23.5 µM

CCN(CC)CCCN(c1ccccc1)C1Cc2ccccc2C1 [Aprindine hydrochloride]
IC50: 2.79 µM

COC(=O)C1=C(C)NC(C)=C(C(=O)OCCCN2CCC(c3ccccc3)(c3ccccc3)CC2)C1c1cccc([N+](=O)[O-])c1 (racemic) [(+/-) -Niguldipine hydrochloride (1:x)]
IC50: 1.25 µM

CC(=O)c1ccc2c(c1)N(CCCN1CCC(CCO)CC1)c1ccccc1S2 [Piperacetazine]
IC50: 2.39 µM

COC(=O)[C@@H]1[C@H]2C[C@H]3c4[nH]c5ccccc5c4CCN3C[C@@H]2CC[C@@H]1O [Yohimbine]
IC50: 23.9 µM

CCCCCCCCCCCCCCCCCCNC(=O)OC1CCN(C(=O)OC[C@H](COC(=O)N(Cc2cccc[n+]2CC)C(=O)c2ccccc2OC)OC)CC1 [Minopafant]
IC50: 19 µM

CCCCCCCCCCOCC(O)CN (stereo not drawn) [Decominol hydrochloride]
IC50: 20.5 µM

CC/C=C\CCOC(=O)c1ccccc1O [(3Z)-Hex-3-en-1-yl salicylate]
IC50: 34.7 µM

CCCCCCCCCCCCn1cc[n+](C)c1 [1-Dodecyl-3-methylimidazolium chloride]
IC50: 2.87 µM

O=C(COc1ccc(Cl)cc1)N1CCN(Cc2ccc3c(c2)OCO3)CC1 [Fipexide hydrochloride]
IC50: 16.1 µM

COc1cc(C(C)(C)C)c(O)c(C(C)(C)C)c1 [2,6-Di-tert-butyl-4-methoxyphenol]
IC50: 38.9 µM

O=S(=O)(c1ccc(Cl)cc1)c1ccc(Cl)cc1 [4,4'-Dichlorodiphenyl sulfone]
IC50: 49.7 µM

CC1(C)CCC(C)(C)c2cc(C(=O)Nc3ccc(C(=O)O)cc3)ccc21 [AM580]
IC50: 43.6 µM

Cc1ccc(-n2nc(C(C)(C)C)cc2NC(=O)Nc2ccc(OCCN3CCOCC3)c3ccccc23)cc1 [Doramapimod]
IC50: 20.1 µM

BrC(Br)C(Br)(Br)Br [Pentabromoethane]
IC50: 49.3 µM

CCN(CCN)c1cccc(C)c1 [N-Ethyl-N-(3-methylphenyl)ethane-1,2-diamine]
IC50: 49 µM

O=[N+]([O-])c1ccc(Nc2ccccc2)cc1 [4-Nitro-N-phenylaniline]
IC50: 51.3 µM

OC(c1ccc(Cl)cc1)(c1ccc(Cl)cc1)c1cccnc1 [Parinol]
IC50: 20.3 µM

CCCOC/C(=N\c1ccc(Cl)cc1C(F)(F)F)n1ccnc1 [Triflumizole]
IC50: 36 µM

CCOC(=O)[C@@H](C)Oc1ccc(Oc2nc3ccc(Cl)cc3o2)cc1 [Fenoxaprop-P-ethyl]
IC50: 26 µM

CCCCOC(=O)CC(CC(=O)OCCCC)(OC(C)=O)C(=O)OCCCC [Acetyl tributyl citrate]
IC50: 8.99 µM

CC(C)(C)C(O)(CCc1ccc(Cl)cc1)Cn1cncn1 (stereo not drawn) [Tebuconazole]
IC50: 21.9 µM

COc1ccc2cc(S(=O)(=O)N[C@H](CC(=O)N[C@H](Cc3ccc(CN4[C@H](C)CCC[C@@H]4C)cc3)C(=O)N(C)C(C)C)c3ccc4c(c3)OCO4)ccc2c1 [SSR 240612]
IC50: 7.07 µM

CN1CCN(CCC(=O)N2c3ccccc3Sc3ccc(C(F)(F)F)cc32)CC1 [Ftormetazine]
IC50: 4.96 µM

CCN(CC)CCOc1ccccc1C(=O)CCc1ccccc1 [Etafenone]
IC50: 3.25 µM

CC(NCCC(c1ccccc1)c1ccccc1)c1ccccc1 (stereo not drawn) [Fendiline hydrochloride]
IC50: 1.69 µM

CN(C/C=C/C#CC(C)(C)C)Cc1cccc2ccccc12 [Terbinafine]
IC50: 9.52 µM

CN1C[C@H](C(=O)N[C@]2(C)O[C@@]3(O)[C@@H]4CCCN4C(=O)[C@H](Cc4ccccc4)N3C2=O)C[C@@H]2c3cccc4[nH]cc(c34)C[C@H]21 [Dihydroergotamine]
IC50: 19 µM

CCCCCCCCCCCCOCCOCCOCCOCCOCCOCCOCCOCCOCCO [Polyoxyethylene (9) lauryl ether]
IC50: 21.3 µM

NC(=O)N(O)[C@@H]1C=C[C@H](Oc2cccc(Oc3ccc(F)cc3)c2)C1 [CJ-013790]
IC50: 38.9 µM

Cc1ccc(S(=O)(=O)C(I)I)cc1 [Diiodomethyl 4-methylphenyl sulfone]
IC50: 46.2 µM

CCCCCCCCCCCCc1ccccc1S(=O)(=O)O [Sodium dodecylbenzenesulfonate]
IC50: 24.5 µM

CCCCCC[n+]1ccn(C)c1.O=S(=O)([N-]S(=O)(=O)C(F)(F)F)C(F)(F)F [1-Hexyl-3-methylimidazolium bis(trifluoromethylsulfonyl)imide]
IC50: 45.4 µM

O=P(Oc1ccccc1)(Oc1ccccc1)Oc1ccccc1 [triphenyl phosphate]
IC50: 32.1 µM

CCOc1cc(Oc2ccc(C(F)(F)F)cc2Cl)ccc1[N+](=O)[O-] [Oxyfluorfen]
IC50: 21.9 µM

N#Cc1sc2c(=O)c3ccccc3c(=O)c=2sc1C#N [Dithianon]
IC50: 30.9 µM

Clc1nc(C(Cl)(Cl)Cl)c(Cl)c(Cl)c1Cl [2,3,4,5-Tetrachloro-6-(trichloromethyl)pyridine]
IC50: 49 µM

Cc1cc(C(C)(C)CC(C)(C)C)ccc1OCCOCC[N+](C)(C)Cc1ccccc1 [Methylbenzethonium chloride]
IC50: 0.756 µM

CN(C)C(=O)C1(N2CCCCC2)CCN(CC[C@@]2(c3ccc(Cl)c(Cl)c3)CN(C(=O)c3ccccc3)CCO2)CC1 [SSR 241586 HCl]
IC50: 9.49 µM

CCCCCCCCCCCC(=O)NCCCN(C)C [N-[3-(Dimethylamino)propyl]dodecanamide]
IC50: 14.3 µM

CC(C(O)c1ccccc1)N(C)C/C=C/c1ccccc1 (stereo not drawn) [Cinnamedrine]
IC50: 12 µM

CC(Cc1ccccc1)NCCCCl (stereo not drawn) [Mefenorex]
IC50: 16.3 µM

N#Cc1ccc(CC(=NNC(=O)Nc2ccc(OC(F)(F)F)cc2)c2cccc(C(F)(F)F)c2)cc1 [Metaflumizone]
IC50: 13.3 µM

O=C1NCN(c2ccccc2)C12CCN(CC1COc3ccccc3O1)CC2 (stereo not drawn) [Spiroxatrine]
IC50: 6.24 µM

CCCCOCCOC(=O)COc1nc(Cl)c(Cl)cc1Cl [Triclopyr butotyl]
IC50: 34.7 µM
